Data as given in PMC9658017, “Hydroxygenkwanin Improves the Efficacy of Cytotoxic Drugs in ABCG2-Overexpressing Multidrug-Resistant Cancer Cells” (International Journal of Molecular Sciences, 2022).

Biological target: T1, ABCG2 (Homo sapiens, UniProt Q9UNQ0)
T1 sequence (Q9UNQ0 1-655): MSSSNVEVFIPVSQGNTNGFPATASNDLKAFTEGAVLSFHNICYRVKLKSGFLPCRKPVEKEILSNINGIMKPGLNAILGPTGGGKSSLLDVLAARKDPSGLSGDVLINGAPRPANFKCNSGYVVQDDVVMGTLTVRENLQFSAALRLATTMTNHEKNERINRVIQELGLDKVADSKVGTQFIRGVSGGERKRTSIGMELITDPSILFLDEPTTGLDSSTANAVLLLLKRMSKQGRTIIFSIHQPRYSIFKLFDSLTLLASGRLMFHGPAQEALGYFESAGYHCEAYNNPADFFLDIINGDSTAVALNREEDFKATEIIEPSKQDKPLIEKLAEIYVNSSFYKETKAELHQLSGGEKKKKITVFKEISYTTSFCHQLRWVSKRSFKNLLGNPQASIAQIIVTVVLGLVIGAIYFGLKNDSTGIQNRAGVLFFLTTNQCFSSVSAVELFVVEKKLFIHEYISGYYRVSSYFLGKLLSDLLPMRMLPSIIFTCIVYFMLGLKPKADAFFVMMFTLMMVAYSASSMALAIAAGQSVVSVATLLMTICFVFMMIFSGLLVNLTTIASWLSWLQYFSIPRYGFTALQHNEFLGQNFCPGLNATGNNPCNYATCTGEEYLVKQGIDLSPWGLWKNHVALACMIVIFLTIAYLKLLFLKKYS
Test: biochemical

Compound: COc1cc(O)c2c(=O)cc(-c3ccc(O)c(O)c3)oc2c1 [HGK, Hydroxygenkwanin]
- EC50: ~19 nM
